In patent US11236401B2, “Sensors for detection and quantification of microbiological protein secretion” (SenseUp GmbH, priority 2015, dated 2022):
Where a SMILES comes first, the peptide text is derived from it. Bridges are numbered along the chain shown (N, C = ends). [ ]: non-standard residue; d: D form. The star is where a group is joined. Ileψ(thiazoline)Cys = CC[C@H](C)[C@H](N)C1=N[C@H](C(=O)*)CS1; dOrn = NCCC[C@@H](N)C(=O)O

How the values were obtained:
[1] = test system: strain ATCC 13032 pSen0706; assay: In vivo EYFP fluorescence of sensor strain ATCC 13032 pSen0706 (cg0706 promoter) as a function of antibiotic concentration, BioLector; assay type: cell-based, Corynebacterium glutamicum; details: ATCC 13032 pSen0706 in CGXII medium, 24 hours; antibiotic added after 4 hours; Vancomycine 0; 1.25; 2.5; 5; 10; 15; 20 μg/ml; Bacitracin 0; 1; 4 μg/ml; excitation 485 nm, emission 520/10 nm; FIGS. 1 and 2
Method: (§1) c) Detection of the fluorescence as a function of the concentration of a compound that is characterized by an antibiotic activity due to its property to damage the membrane of a bacterial cell.
The examination of in vivo fluorescence emission was carried out by culturing the cells of strain ATCC 13032 pSen0706 with 0.8 ml CGXII medium (Keilhauer et al, 1993, J. Bacteriol. 175: 5595-603) in microtiter dimension (Flowerplate® MTP-48-B) in the BioLector system (m2p-labs GmbH, 52499 Baesweiler, Germany). This system allows for the parallel cultivation of 48 cultures and regular and automated optical measurements of the culture growth as well as the fluorescence. 10 cultures with cells of strain ATCC 13032 pSen0706 were inoculated to an OD of 0.1 and cultured for 24 hours. After 4 hours the antibiotic substances Vancomycine or Bacitracine were added to the cultures. Vancomycine-concentrations were adjusted to 0; 1.25; 2.5; 5; 10; 15; 20 μg/ml and Bacitracin-concentrations were adjusted to 0; 1; 4 μg/ml. Every 10 minutes the cell densities of cultures and the fluorescence were measured. The fluorescence was excited with light of wavelength 485 nm, the fluorescence emission measurement of EYFP was carried out at 520/10 nm. The fluorescence of the cultures has been digitally recorded by means of the BioLection V.2.4.1.0 software.

[2] = test system: strain ATCC 13032 pSen1325; assay: In vivo EYFP fluorescence of sensor strain ATCC 13032 pSen1325 (cg1325 promoter) as a function of antibiotic concentration, BioLector; assay type: cell-based, Corynebacterium glutamicum; details: ATCC 13032 pSen1325 in CGXII medium, 24 hours; antibiotic added after 4 hours; Vancomycine 0; 1.25; 2.5; 5; 10; 15; 20 μg/ml; Bacitracin 0; 0.25; 0.5; 1; 2; 4 μg/ml; excitation 485 nm, emission 520/10 nm
Method: as §1
The examination of in vivo fluorescence emission was carried out by culturing the cells of strain ATCC 13032 pSen1325 with 0.8 ml CGXII medium (Keilhauer et al, 1993, J. Bacteriol. 175: 5595-603) in microtiter dimension (Flowerplate® MTP-48-B) in the BioLector system (m2p-labs GmbH, 52499 Baesweiler, Germany). 13 cultures with cells of strain ATCC 13032 pSen1325 were inoculated to an OD of 0.1 and cultured for 24 hours. After 4 hours the antibiotic substances Vancomycine or Bacitracine were added to the cultures. Vancomycine-concentrations were adjusted to 0; 1.25; 2.5; 5; 10; 15; 20 μg/ml and Bacitracin-concentrations were adjusted to 0; 0.25; 0.5; 1; 2; 4 μg/ml. Every 10 minutes the cell densities of cultures and the fluorescence were measured. The fluorescence was excited with light of wavelength 485 nm, the fluorescence emission measurement of EYFP was carried out at 520/10 nm. The fluorescence of the cultures has been digitally recorded by means of the BioLection V.2.4.1.0 software.

Row | Compound | fluorescence emission of cultures as a function of the concentration of the compound [1] | fluorescence emission of cultures as a function of the concentration of the compound [2]
1 | CC[C@H](C)[C@H](N)C1=N[C@H](C(=O)N[C@@H](CC(C)C)C(=O)N[C@H](CCC(=O)O)C(=O)N[C@H](C(=O)N[C@H]2CCCCNC(=O)[C@H](CC(N)=O)NC(=O)[C@@H](CC(=O)O)NC(=O)[C@H](Cc3cnc[nH]3)NC(=O)[C@@H](Cc3ccccc3)NC(=O)[C@H]([C@@H](C)CC)NC(=O)[C@@H](CCCN)NC2=O)[C@@H](C)CC)CS1 [Bacitracine] ({Ileψ(thiazoline)Cys}-L[dE]IK[dOrn]I[dF]H[dD]N; lactam 4-C) | fluorescence emissions of cultures with different Vancomycine or Bacitracine concentrations also differs | fluorescence emissions of cultures with different Vancomycine or Bacitracine concentrations also differs
2 | CN[C@H](CC(C)C)C(=O)N[C@H]1C(=O)N[C@@H](CC(N)=O)C(=O)N[C@H]2C(=O)N[C@H]3C(=O)N[C@H](C(=O)N[C@H](C(=O)O)c4cc(O)cc(O)c4-c4cc3ccc4O)[C@H](O)c3ccc(c(Cl)c3)Oc3cc2cc(c3O[C@@H]2O[C@H](CO)[C@@H](O)[C@H](O)[C@H]2O[C@H]2C[C@](C)(N)[C@H](O)[C@H](C)O2)Oc2ccc(cc2Cl)[C@H]1O [Vancomycine] | fluorescence emissions of cultures with different Vancomycine or Bacitracine concentrations also differs | fluorescence emissions of cultures with different Vancomycine or Bacitracine concentrations also differs
